According to ChEMBL document CHEMBL2321846, “Aldosterone synthase inhibitors: targeting chronic kidney disease and diabetic nephropathy” (ACS Med Chem Lett, 2013):

What was measured:
[1] = test system: estradiol production (relative to human aldosterone synthase); assay: Selectivity ratio of IC50 for estradiol production in human H295R cells to IC50 for human aldosterone synthase; format: ADME, cell-based; conditions: read-out: Ratio IC50
[2] = test system: NCI-H295R; assay: Inhibition of estradiol production in human NCI-H295R cells after 48 hrs by HPLC analysis; format: functional, cell-based
[3] = test system: testosterone production (relative to human aldosterone synthase); assay: Selectivity ratio of IC50 for testosterone production in human H295R cells to IC50 for human aldosterone synthase; format: ADME, cell-based; conditions: read-out: Ratio IC50
[4] = target: T1, Cytochrome P450 11B2, mitochondrial (Homo sapiens, UniProt P19099); assay: Inhibition of human aldosterone synthase transfected in chinese hamster V79 cells after 24 hrs by LC-MS method; format: cell-based
T1 sequence (P19099 whole entry): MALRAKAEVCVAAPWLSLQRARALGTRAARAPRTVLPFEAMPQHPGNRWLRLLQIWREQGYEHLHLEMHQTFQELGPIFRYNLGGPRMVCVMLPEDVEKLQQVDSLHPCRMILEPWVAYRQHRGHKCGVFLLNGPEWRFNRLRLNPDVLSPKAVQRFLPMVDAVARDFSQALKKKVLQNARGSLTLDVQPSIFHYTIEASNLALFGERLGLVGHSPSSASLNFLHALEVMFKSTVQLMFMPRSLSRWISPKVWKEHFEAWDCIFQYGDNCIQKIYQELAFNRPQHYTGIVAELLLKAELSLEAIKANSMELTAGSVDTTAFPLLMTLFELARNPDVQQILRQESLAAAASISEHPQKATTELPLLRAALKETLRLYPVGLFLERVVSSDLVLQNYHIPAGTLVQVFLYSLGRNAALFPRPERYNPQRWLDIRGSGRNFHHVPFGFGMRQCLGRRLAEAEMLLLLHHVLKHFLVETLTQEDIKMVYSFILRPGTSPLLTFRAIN

[5] = test system: NCI-H295R; assay: Inhibition of testosterone production in human NCI-H295R cells after 48 hrs by HPLC analysis; format: functional, cell-based

Row | IC50 [2] [µM] | IC50 [4] [µM] | IC50 [5] [µM] | Structure (SMILES) | selectivity ratio [1] | selectivity ratio [3]
1 | 22 | 0.007 | > 30 | CC1(C)CC(c2ccc(C#N)cc2F)c2cn[nH]c21 (stereo not given) | 3140 | > 4280
2 | 13.2 | 0.005 | > 30 | CC1(C)C[C@H](c2ccc(C#N)cc2)c2cn[nH]c21 | 2640 | > 6000
